This is an account of results in patent US7943176B2, “Oral dosage form for propiverine or its pharmaceutically acceptable salts with an extended release of the active ingredient” (Apogepha Arzneimittel GmbH, priority 2001, dated 2011).

The solubility is the dissolved amount per volume that the medium holds.

For data set [1] the following is noted: water, pH=4.0-8.0; cited from earlier work.
For data set [2] the following is noted: water, 25° C.; cited from earlier work.
The nature of data set [3]: Distribution coefficient of propiverine-hydrochloride (1-octanol/water, 25° C.). The class given is physicochemical. As for the experimental part:
(§1) The distribution coefficient and the solubility of propiverine-hydrochloride in dependence of the pH value are known (determination of the amount of propiverine in the aqueous phase via HPLC).
Distribution coefficient of propiverine-hydrochloride (1-octanol/water, 25° C.)

Data set [4] in a line: Solubility of propiverine-hydrochloride in water. Format: physicochemical. Conditions: aqueous buffer.
From the text: as §1
Solubility of propiverine-hydrochloride in water

SMILES strings stand for the structures. Where “and” joins values, the source holds several entries; their conditions need not be identical. Equal values may be shown once. Where a name gives a salt, the structure may show the parent alone. Read-outs that look alike come from different tables or passages of the source.

`CCCOC(C(=O)OC1CC[N+](C)([O-])CC1)(c1ccccc1)c1ccccc1` (stereo not shown) [Propiverine-N-oxide, propiverine-N-oxide]: the solubility in data set [1] was > 127 mg/mL and > 99 mg/mL.

`CCCOC(C(=O)OC1CCN(C)CC1)(c1ccccc1)c1ccccc1` [propiverine, 2,2-diphenyl-2-(1-propoxy)acetic acid(1-methyl-piperid-4-yl)ester]: the pKa value in data set [2] is 7.35±0.1.

As for `CCCOC(C(=O)OC1CCN(C)CC1)(c1ccccc1)c1ccccc1` [propiverine-hydrochloride], the “Log [K]” value in data set [3] (pH 1.0) amounted to 1.3; in data set [3] (pH 5.0), 1.1; in data set [3] (pH 6.0), 2.4; in data set [3] (pH 6.5), 2.9; in data set [3] (pH 6.8) it was 3.8; in data set [3] (pH 7.0), 4.0. Besides, the results for the “Log [K]” value in data set [3] (pH 7.2), in data set [3] (pH 7.5) and in data set [3] (pH 8.0) were 4.2, 4.4 and 4.7, respectively. For the same compound, the “K (distribution coefficient)” value was found to be 22 in data set [3] (pH 1.0, mean of three); 13 in data set [3] (pH 5.0, mean of three); 227 in data set [3] (pH 6.0, mean of three); 884 in data set [3] (pH 6.5, mean of three); 6904 in data set [3] (pH 6.8, mean of three); 10346 in data set [3] (pH 7.0, mean of three). The “K (distribution coefficient)” value in data set [3] (pH 7.2, mean of three) is on record as 15438; in data set [3] (pH 7.5, mean of three), 26068; in data set [3] (pH 8.0, mean of three), 52372. Moreover, the solubility in data set [4] (pH 5.8, 24 ° C.) is > 200 mg/mL; in data set [4] (pH 5.8, 37 ° C.) it was 368 mg/mL; in data set [4] (pH 6.0, 24 ° C.) it was 209 mg/mL; in data set [4] (pH 7.0, 24 ° C.) it was 1.2 mg/mL; in data set [4] (pH 7.2, 24 ° C.) it was 1.1 mg/mL.
